Structures can show the parent of a compound that is named as a salt. Where two headings read alike, the source gives them in different places.
Columns and labels:
[1] = molecular target: T1, CHK1 (Homo sapiens, UniProt O14757); assay: CHK1 protein kinase assay; type: biochemical; conditions: for remaining activity at 10 µM: 10 μM compound; for residual kinase activity CHK1: 1 μm compound; for remaining activity at 1 µM: 1 μM compound
T1 construct: All protein kinases were of human origin and encoded full length proteins, unless indicated otherwise; made in house
T1 sequence (O14757 1-476): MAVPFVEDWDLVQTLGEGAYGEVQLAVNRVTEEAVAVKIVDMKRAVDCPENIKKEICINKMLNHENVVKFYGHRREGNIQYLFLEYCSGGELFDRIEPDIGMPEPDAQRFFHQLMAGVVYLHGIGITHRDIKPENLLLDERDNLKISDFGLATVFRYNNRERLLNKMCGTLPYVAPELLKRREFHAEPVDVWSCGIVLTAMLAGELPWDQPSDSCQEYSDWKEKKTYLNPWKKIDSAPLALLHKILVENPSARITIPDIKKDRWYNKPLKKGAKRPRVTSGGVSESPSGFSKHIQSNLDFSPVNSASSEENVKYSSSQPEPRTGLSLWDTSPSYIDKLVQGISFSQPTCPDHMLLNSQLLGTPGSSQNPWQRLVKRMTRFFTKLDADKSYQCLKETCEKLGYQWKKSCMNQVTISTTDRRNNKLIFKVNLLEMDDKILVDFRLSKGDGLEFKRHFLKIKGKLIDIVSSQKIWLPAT
Description: (§1) All protein kinases were of human origin and encoded full length proteins, unless indicated otherwise. They were either expressed as glutathione S-transferase (GST) fusion proteins in Escherichia Coli or as hexahistidine (His6)-tagged proteins in insect Sf21 cells. GST fusion proteins were purified by affinity chromatography on glutathione-Sepharose, and His6-tagged proteins on nickel/nitriloacetate-agarose. The procedures for expressing some of the protein kinases used herein have been detailed previously.^8,9 The following sections outline the DNA vectors synthesised and the procedures used to express and purifying protein kinases that have not been reported previously.
(§2) All assays (25.5 μl) were carried out at room temperature (21° C.) and were linear with respect to time and enzyme concentration under the conditions used. Assays were performed for 30 min using Multidrop Micro reagent dispensers (Thermo Electron Corporation, Waltham, Mass. 02454, USA) in a 96-well format. The concentration of magnesium acetate in the assays was 10 mM and the [γ-33P] ATP (800 cpm/pmol) was used at 5, 20 or 50 μM as indicated, in order to be at or below the Km for ATP for each enzyme. Protein kinases assayed at 5 μM ATP were: —ERK1, ERK8, PKBα, MARK3, Aurora C. Protein kinases assayed at 20 μM ATP were: —JNK1, PDK1, CHK1, CHK2, CDK2 and Aurora B. Protein kinases assayed at 50 μM ATP were: —MNK2, IKKepsilon and TBK1.
(§3) The assays were initiated with MgATP, stopped by addition of 5 μl of 0.5 M orthophosphoric acid and spotted on to P81 filterplates using a unifilter harvester (PerkinElmer, Boston, Mass. 02118, USA). The IC50 values of inhibitors were determined after carrying out assays at 10 different concentrations of each compound.
(§4) Unless stated otherwise, enzymes were diluted in 50 mM Tris/HCl pH 7.5, 0.1 mM EGTA, 1 mg/ml BSA, 0.1% (v/v) 2-mercaptoethanol and assayed in 50 mM Tris/HCl pH 7.5, 0.1 mM EGTA, 0.1% (v/v) 2-mercaptoethanol.

[2] = molecular target: PKBb (Homo sapiens, UniProt P31751, S474D); assay: PKBb protein kinase assay
[3] = molecular target: T2, EPH A2 (Homo sapiens, UniProt P29317); assay: EPH A2 protein kinase assay; type: biochemical; conditions: for remaining activity at 10 µM: 10 μM compound; for residual kinase activity EPH A2: 1 μm compound; for remaining activity at 1 µM: 1 μM compound
T2 construct: All protein kinases were of human origin and encoded full length proteins, unless indicated otherwise; made in house
T2 sequence (P29317 591-976 limits assumed): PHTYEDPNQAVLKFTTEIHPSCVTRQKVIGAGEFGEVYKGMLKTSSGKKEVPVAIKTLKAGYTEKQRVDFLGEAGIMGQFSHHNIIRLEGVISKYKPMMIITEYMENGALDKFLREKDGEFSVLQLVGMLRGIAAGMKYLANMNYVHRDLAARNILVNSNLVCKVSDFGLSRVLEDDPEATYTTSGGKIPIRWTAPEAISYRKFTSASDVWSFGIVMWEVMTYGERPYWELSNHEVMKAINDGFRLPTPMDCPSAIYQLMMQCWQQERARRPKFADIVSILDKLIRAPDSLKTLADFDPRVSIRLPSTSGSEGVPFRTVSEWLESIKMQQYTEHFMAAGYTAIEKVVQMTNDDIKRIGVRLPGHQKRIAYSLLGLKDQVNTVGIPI
Description: as §1, §2, §3, §4

[4] = tested on: CK2; assay: CK2 protein kinase assay; type: biochemical, human; conditions: for residual kinase activity: CK2
Description: as §1, §2, §3, §4

[5] = molecular target: T3, CDK2-Cyclin A (Homo sapiens, UniProt P24941); assay: CDK2-Cyclin A protein kinase assay; type: biochemical; conditions: for remaining activity at 10 µM: 10 μM compound; for residual kinase activity CDK2-Cyclin A: 1 μm compound; for remaining activity at 1 µM: 1 μM compound
T3 construct: All protein kinases were of human origin and encoded full length proteins, unless indicated otherwise; GST (cleaved yes); made in house; host or cells: E. coli
Description: as §1
The following proteins were expressed in E. coli: —CHK2[5-543], cyclin-dependent protein kinase 2 (CDK2), MAP kinase-interacting kinase 2 (MNK2), extra-cellular signal-regulated kinase 1 (ERK1).
In order to produce activated forms of Aurora B and Aurora C, insect Sf21 cells were incubated for 1 h with the protein phosphatase inhibitor okadaic acid (50 nM). JNK isoforms were activated with MKK4 and MKK7, MNK2 with p38α MAPkinase; PKBα, PKBβ, with PDK1, and ERK1 with MKK1. To activate CDK2, bacterial pellets expressing cyclin A2 and CDK2 were mixed together, lyse and purified on glutathione Sepharose. The GST-tags were removed by cleavage with PreScission protease and the CDK2-cyclin A2 complex purified by chromatography on SP-Sepharose. It was then activated with CAK1/CDK7 followed by chromatography on nickel-nitrilotriacetate agarose to remove CAK1/CDK7, which binds to this column by virtue of its C-terminal His6 tag. All the other protein kinases were active as expressed.
as §2, §3, §4

[6] = molecular target: T4, MSK1 (Homo sapiens, UniProt O75582); assay: MSK1 protein kinase assay; type: biochemical; conditions: for remaining activity at 10 µM: 10 μM compound; for residual kinase activity MSK1: 1 μm compound; for remaining activity at 1 µM: 1 μM compound
T4 construct: All protein kinases were of human origin and encoded full length proteins, unless indicated otherwise; made in house
Description: as §1, §2, §3, §4

[7] = read-out: residual kinase activity CHK1
[8] = read-out: residual kinase activity PKBb
[9] = read-out: residual kinase activity EPH A2
[10] = read-out: residual kinase activity CDK2-Cyclin A
[11] = read-out: residual kinase activity MSK1
[12] = CHK1, 20 μM ATP, read-out: residual kinase activity
[13] = read-out: residual kinase activity
[14] = EPH A2, read-out: residual kinase activity
[15] = CDK2-Cyclin A, 20 μM ATP, read-out: residual kinase activity
[16] = MSK1, read-out: residual kinase activity

T4 sequence (O75582 whole entry): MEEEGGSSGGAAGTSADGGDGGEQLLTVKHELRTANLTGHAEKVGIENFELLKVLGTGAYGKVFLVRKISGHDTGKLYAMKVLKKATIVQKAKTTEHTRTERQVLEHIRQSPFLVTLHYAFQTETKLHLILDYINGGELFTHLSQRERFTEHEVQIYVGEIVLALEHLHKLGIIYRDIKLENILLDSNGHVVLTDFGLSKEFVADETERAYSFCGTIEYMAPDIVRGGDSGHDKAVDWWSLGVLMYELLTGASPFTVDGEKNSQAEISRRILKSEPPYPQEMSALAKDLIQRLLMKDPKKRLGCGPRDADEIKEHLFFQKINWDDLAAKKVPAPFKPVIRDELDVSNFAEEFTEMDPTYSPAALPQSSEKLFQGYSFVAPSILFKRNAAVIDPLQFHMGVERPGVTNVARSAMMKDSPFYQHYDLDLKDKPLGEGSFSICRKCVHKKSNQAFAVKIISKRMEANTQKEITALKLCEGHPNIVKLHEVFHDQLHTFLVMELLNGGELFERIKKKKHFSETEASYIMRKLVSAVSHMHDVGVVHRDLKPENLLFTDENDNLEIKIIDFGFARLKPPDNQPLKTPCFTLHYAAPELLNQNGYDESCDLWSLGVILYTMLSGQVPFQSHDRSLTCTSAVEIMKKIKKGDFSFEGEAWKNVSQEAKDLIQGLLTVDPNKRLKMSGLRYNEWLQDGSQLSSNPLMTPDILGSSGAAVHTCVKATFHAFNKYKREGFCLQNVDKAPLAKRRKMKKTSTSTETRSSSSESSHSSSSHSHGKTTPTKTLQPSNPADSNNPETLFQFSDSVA
Sequence of PKBb (P31751 120-481 S474D): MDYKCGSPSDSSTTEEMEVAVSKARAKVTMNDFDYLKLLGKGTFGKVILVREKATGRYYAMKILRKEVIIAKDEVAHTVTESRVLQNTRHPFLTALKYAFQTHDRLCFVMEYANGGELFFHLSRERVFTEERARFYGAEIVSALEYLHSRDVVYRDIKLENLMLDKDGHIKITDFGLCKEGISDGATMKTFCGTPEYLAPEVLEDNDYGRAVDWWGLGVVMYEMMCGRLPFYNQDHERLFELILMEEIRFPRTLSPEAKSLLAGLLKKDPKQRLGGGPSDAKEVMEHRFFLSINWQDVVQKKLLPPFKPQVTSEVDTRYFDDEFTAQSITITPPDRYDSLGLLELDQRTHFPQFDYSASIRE

Row | Compound | remaining activity at 10 µM [1, 7] | residual kinase activity CHK1 [1] | remaining activity at 1 µM [2, 8] | remaining activity at 10 µM [2, 8] | remaining activity at 10 µM [3, 9] | residual kinase activity EPH A2 [3] | residual kinase activity CK2 ([4]; 10 μM compound) | residual kinase activity CK2 ([4]; 1 μm compound) | remaining activity at 1 µM [1, 12] | remaining activity at 10 µM [1, 12] | remaining activity at 1 µM [2, 13] | remaining activity at 10 µM [2, 13] | remaining activity at 1 µM [3, 14] | remaining activity at 10 µM [3, 14] | residual kinase activity ([4]; 1 μM compound) | residual kinase activity ([4]; 10 μM compound) | remaining activity at 1 µM [5, 15] | remaining activity at 10 µM [5, 15] | remaining activity at 1 µM [6, 16] | remaining activity at 10 µM [6, 16] | other results
1 | O=C(NCCCNc1nc(Nc2cccc(F)c2)ncc1Br)C1CCC1 [Compound A, cyclobutanecarboxylic acid {3-[5-bromo-2-(3-fluoro-phenylamino)-pyrimidin-4-ylamino]-propyl}-amide, reference compound] | 0% | 9% | 91% | 93% | 60% | 87% | 44% | 77% |  |  |  |  |  |  |  |  |  |  |  |  | remaining activity at 10 µM [5, 10]: 0%; residual kinase activity CDK2-Cyclin A [5]: 1%; remaining activity at 10 µM [6, 11]: 24%; residual kinase activity MSK1 [6]: 62%
2 | O=C(NCCCNc1nc(Nc2cccc(F)c2)ncc1C1CC1)C1CCC1 [Example 23, Cyclobutanecarboxylic acid {3-[5-cyclopropyl-2-(3-fluoro-phenylamino)-pyrimidin-4-ylamino]-propyl}-amide] | 14% | 51% | 106% | 114% | 71% | 71% | 107% | 111% | 51% | 14% | 106% | 114% | 71% | 71% | 111% | 107% | 17% | 2% | 74% | 34% | remaining activity at 10 µM [5, 10]: 2%; residual kinase activity CDK2-Cyclin A [5]: 17%; remaining activity at 10 µM [6, 11]: 34%; residual kinase activity MSK1 [6]: 74%
3 | O=C(NCCCNc1nc(Nc2cccc(N3CCCC3=O)c2)ncc1C1CC1)c1cccs1 [Example 47, Thiophene-2-carboxylic acid (3-{5-cyclopropyl-2-[3-(2-oxo-pyrrolidin-1-yl)-phenylamino]-pyrimidin-4-ylamino}-propyl)-amide. Hydrochloride salt] |  |  |  |  |  |  |  |  | 70% | 30% | 117% | 97% | 47% | 76% | 80% | 78% | 70% | 29% | 61% | 54% | 
4 | O=C(NCCCNc1nc(Nc2cccnc2)ncc1C1CC1)c1cccs1 [Example 50, Thiophene-2-carboxylic acid {3-[5-cyclopropyl-2-(pyridin-3-ylamino)-pyrimidin-4-ylamino]-propyl}-amide] |  |  |  |  |  |  |  |  | 65% | 21% | 116% | 107% | 88% | 73% | 72% | 80% | 33% | 5% | 77% | 70% | 
